These results are taken from PubChem BioAssay AID1259407 (Chemical Carcinogenesis Research Information System (CCRIS), 2018).

Calls of active or inactive are those of the source. No rule for the calls is given here.

The data set relates to CCRIS mutagenicity, Ames/micronucleus/aberration tests. In words: CCRIS mutagenicity studies.
[1] abbreviates: Test System: AMES SALMONELLA TYPHIMURIUM, Strain/Indicator: TA100, Metabolic Activation: NONE, Method: STANDARD PLATE.
The mark [2] stands for this setting: Test System: AMES SALMONELLA TYPHIMURIUM, Strain/Indicator: TA100, Metabolic Activation: RAT, LIVER, S-9, PHENOBARBITAL AND 5,6-BENZOFLAVONE, Method: PREINCUBATION
Setting [3] is: Test System: AMES SALMONELLA TYPHIMURIUM, Strain/Indicator: TA98, Metabolic Activation: NONE, Method: STANDARD PLATE.

Consider `[N-]=[N+]=CC(=O)OC[C@H](N)C(=O)O`, for which the mutagenic call is “active; positive” under setting [1]; “active; positive” (Test System: E. COLI WP2, Strain/Indicator: WP2, Metabolic Activation: NONE, Method: STANDARD PLATE); “active; positive” (Test System: UDS RAT HEPATOCYTES, Strain/Indicator: BROMODEOXYURIDINE INCORP, Metabolic Activation: NONE, Method: FLOW CYTOMETRIC ANALYSIS); “active; positive” (Test System: UDS RAT HEPATOCYTES, Strain/Indicator: THY INCORP, Metabolic Activation: NONE, Method: AUTORADIOGRAPHY).
For `Nc1ccccc1S`, the mutagenic call reads like this: (End Point: In vitro chromosomal aberrations, Test System: Chinese hamster lung (CHL/IU) cells, Metabolic Activation: Rat, Liver, S9, Phenobarbital and 5,6-benzoflavone) “active; positive (structural changes and ploidy)”; (Test System: AMES SALMONELLA TYPHIMURIUM, Strain/Indicator: TA98, Metabolic Activation: RAT, LIVER, S-9, PHENOBARBITAL AND BETA-NAPHTHOFLAVONE, Method: PREINCUBATION) “inactive; negative”; (Test System: AMES SALMONELLA TYPHIMURIUM, Strain/Indicator: TA100, Metabolic Activation: NONE, Method: PREINCUBATION) “inactive; negative”; (Test System: AMES SALMONELLA TYPHIMURIUM, Strain/Indicator: TA100, Metabolic Activation: RAT, LIVER, S-9, PHENOBARBITAL AND BETA-NAPHTHOFLAVONE, Method: PREINCUBATION) “inactive; negative”; (Test System: AMES SALMONELLA TYPHIMURIUM, Strain/Indicator: TA1535, Metabolic Activation: NONE, Method: PREINCUBATION) “inactive; negative”; (Test System: AMES SALMONELLA TYPHIMURIUM, Strain/Indicator: TA1535, Metabolic Activation: RAT, LIVER, S-9, PHENOBARBITAL AND BETA-NAPHTHOFLAVONE, Method: PREINCUBATION) “inactive; negative”. Besides, the mutagenic call (Test System: AMES SALMONELLA TYPHIMURIUM, Strain/Indicator: TA1537, Metabolic Activation: NONE, Method: PREINCUBATION) was “inactive; negative”; the mutagenic call (Test System: AMES SALMONELLA TYPHIMURIUM, Strain/Indicator: TA1537, Metabolic Activation: RAT, LIVER, S-9, PHENOBARBITAL AND BETA-NAPHTHOFLAVONE, Method: PREINCUBATION) was “inactive; negative”; the mutagenic call (Test System: AMES SALMONELLA TYPHIMURIUM, Strain/Indicator: TA1537, Metabolic Activation: RAT, LIVER, S-9, SODIUM PHENOBARBITAL AND 5,6-BENZOFLAVONE, Method: PREINCUBATION) is “inactive; negative”; the mutagenic call (Test System: E. COLI, Strain/Indicator: WP2UVRA, Metabolic Activation: NONE, Method: PREINCUBATION) was “inactive; negative”; the mutagenic call (Test System: E. COLI, Strain/Indicator: WP2UVRA, Metabolic Activation: RAT, LIVER, S-9, PHENOBARBITAL AND BETA-NAPHTHOFLAVONE, Method: PREINCUBATION) was “inactive; negative”.
Take `Fc1cccc2ncccc12`: the mutagenic call was “active; positive, described as marginally clastogenic at non toxic doses. (information d” (End Point: In vitro chromosomal aberrations, Test System: Chinese hamster lung fibroblast cells (CHL/IU), Metabolic Activation: Rat, liver, S-9); “active; positive (information derived from a figure)” (End Point: In vitro micronucleus, Test System: Chinese hamster lung fibroblast cells (CHL/IU), Metabolic Activation: Rat, liver, S-9); “active; positive” (Test System: AMES SALMONELLA TYPHIMURIUM, Strain/Indicator: TA100, Metabolic Activation: RAT LIVER S-9, PHENOBARBITAL AND 5,6-BENZOFLAVONE, Method: PREINCUBATION); “active; positive” (Test System: AMES SALMONELLA TYPHIMURIUM, Strain/Indicator: TA100, Metabolic Activation: RAT, LIVER, S-9, AROCLOR 1254, Method: PREINCUBATION); “active; positive” under setting [2]; “active; positive” (Test System: AMES SALMONELLA TYPHIMURIUM, Strain/Indicator: TA100, Metabolic Activation: RAT, LIVER, S-9, PHENOBARBITAL AND 5,6-NAPHTHOFLAVONE, Method: PREINCUBATION). Besides, the mutagenic call (Test System: UDS RODENT HEPATOCYTES, Strain/Indicator: THY INCORP (NON-S-PHASE), Metabolic Activation: NONE, Method: AUTORADIOGRAPHY) was “active; positive”.
For `C=C(C)C(=O)OCCOCCOCCOC(=O)C(=C)C`, the mutagenic call was “inactive; negative” (Test System: AMES SALMONELLA TYPHIMURIUM, Strain/Indicator: TA97A, Metabolic Activation: NONE, Method: STANDARD PLATE); “inactive; negative” (Test System: AMES SALMONELLA TYPHIMURIUM, Strain/Indicator: TA97A, Metabolic Activation: RAT, LIVER, S-9, PHENOBARBITAL AND BETA-NAPHTHAFLAVONE, Method: STANDARD PLATE); “inactive; negative” under setting [3]; “inactive; negative” (Test System: AMES SALMONELLA TYPHIMURIUM, Strain/Indicator: TA98, Metabolic Activation: RAT, LIVER, S-9, PHENOBARBITAL AND BETA-NAPHTHAFLAVONE, Method: STANDARD PLATE); “inactive; negative” under setting [1]; “inactive; negative” (Test System: AMES SALMONELLA TYPHIMURIUM, Strain/Indicator: TA100, Metabolic Activation: RAT, LIVER, S-9, PHENOBARBITAL AND BETA-NAPHTHAFLAVONE, Method: STANDARD PLATE). The mutagenic call (Test System: AMES SALMONELLA TYPHIMURIUM, Strain/Indicator: TA102, Metabolic Activation: NONE, Method: STANDARD PLATE) was “inactive; negative”; the mutagenic call (Test System: AMES SALMONELLA TYPHIMURIUM, Strain/Indicator: TA102, Metabolic Activation: RAT, LIVER, S-9, PHENOBARBITAL AND BETA-NAPHTHAFLAVONE, Method: STANDARD PLATE) was “inactive; negative”; the mutagenic call (Test System: CHINESE HAMSTER V-79, Strain/Indicator: V-79 (HPRT)/6-THIOGUANINE, Metabolic Activation: NONE) is “active; positive”; the mutagenic call (Test System: CHINESE HAMSTER V-79, Strain/Indicator: V-79 (HPRT)/6-THIOGUANINE, Metabolic Activation: R, L, S-9, PHENOBARBITAL AND BETA-NAPHTHOFLAVONE) was “inactive; negative”.
For `O=C1C(=O)c2c(ccc3ccccc23)-c2ccccc21`, the mutagenic call by setting is: under setting [3], “inactive; negative”; (Test System: AMES SALMONELLA TYPHIMURIUM, Strain/Indicator: TA100, Metabolic Activation: RAT, LIVER, S-9, AROCLOR 1254, Method: STANDARD PLATE) “inactive; negative”.
On to `COc1c2ccoc2nc2c(O)cccc12`, for which the mutagenic call is “inactive; negative” under setting [3] and “active; positive” (Test System: AMES SALMONELLA TYPHIMURIUM, Strain/Indicator: TA98, Metabolic Activation: RAT LIVER S-9, PHENOBARTITAL, Method: STANDARD PLATE).
As to `COc1ccc2oc3cc(O)cc(O)c3c(=O)c2c1`, the mutagenic call is “active; positive” (Test System: AMES SALMONELLA TYPHIMURIUM, Strain/Indicator: TA97, Metabolic Activation: RAT, LIVER, S-9, PHENOBARBITAL AND 5,6-BENZOFLAVONE, Method: PREINCUBATION); “active; positive” (Test System: AMES SALMONELLA TYPHIMURIUM, Strain/Indicator: TA98, Metabolic Activation: RAT, LIVER, S-9, PHENOBARBITAL AND 5,6-BENZOFLAVONE, Method: PREINCUBATION); “active; positive” under setting [2]; “active; positive” (Test System: AMES SALMONELLA TYPHIMURIUM, Strain/Indicator: TA2637, Metabolic Activation: RAT, LIVER, S-9, PHENOBARBITAL AND 5,6-BENZOFLAVONE, Method: PREINCUBATION).
In the case of `[N-]=[N+]=CC(=O)NCC(N)=O`, the mutagenic call reads like this: (Test System: AMES SALMONELLA TYPHIMURIUM, Strain/Indicator: TA1535, Metabolic Activation: NONE, Method: STANDARD PLATE) “active; positive”; (Test System: UDS RODENT CELLS, Strain/Indicator: THY INCORP (NON-S-PHASE), Metabolic Activation: NONE, Method: AUTORADIOGRAPHY) “active; positive”.
